The values that follow come from PMC9927415, “Tyrosine Kinase Inhibitors Display Potent Activity against Cryptosporidium parvum” (Microbiology Spectrum, 2022).

Where two headings read alike, the source gives them in different places.

Common to all, as to experiment: KINOMEscan competitive binding
One experiment addresses T1, STK36 (Homo sapiens, UniProt Q9NRP7).
T1 construct: purchased DiscoverX (KINOMEscan)
T1 sequence (Q9NRP7 1-1315): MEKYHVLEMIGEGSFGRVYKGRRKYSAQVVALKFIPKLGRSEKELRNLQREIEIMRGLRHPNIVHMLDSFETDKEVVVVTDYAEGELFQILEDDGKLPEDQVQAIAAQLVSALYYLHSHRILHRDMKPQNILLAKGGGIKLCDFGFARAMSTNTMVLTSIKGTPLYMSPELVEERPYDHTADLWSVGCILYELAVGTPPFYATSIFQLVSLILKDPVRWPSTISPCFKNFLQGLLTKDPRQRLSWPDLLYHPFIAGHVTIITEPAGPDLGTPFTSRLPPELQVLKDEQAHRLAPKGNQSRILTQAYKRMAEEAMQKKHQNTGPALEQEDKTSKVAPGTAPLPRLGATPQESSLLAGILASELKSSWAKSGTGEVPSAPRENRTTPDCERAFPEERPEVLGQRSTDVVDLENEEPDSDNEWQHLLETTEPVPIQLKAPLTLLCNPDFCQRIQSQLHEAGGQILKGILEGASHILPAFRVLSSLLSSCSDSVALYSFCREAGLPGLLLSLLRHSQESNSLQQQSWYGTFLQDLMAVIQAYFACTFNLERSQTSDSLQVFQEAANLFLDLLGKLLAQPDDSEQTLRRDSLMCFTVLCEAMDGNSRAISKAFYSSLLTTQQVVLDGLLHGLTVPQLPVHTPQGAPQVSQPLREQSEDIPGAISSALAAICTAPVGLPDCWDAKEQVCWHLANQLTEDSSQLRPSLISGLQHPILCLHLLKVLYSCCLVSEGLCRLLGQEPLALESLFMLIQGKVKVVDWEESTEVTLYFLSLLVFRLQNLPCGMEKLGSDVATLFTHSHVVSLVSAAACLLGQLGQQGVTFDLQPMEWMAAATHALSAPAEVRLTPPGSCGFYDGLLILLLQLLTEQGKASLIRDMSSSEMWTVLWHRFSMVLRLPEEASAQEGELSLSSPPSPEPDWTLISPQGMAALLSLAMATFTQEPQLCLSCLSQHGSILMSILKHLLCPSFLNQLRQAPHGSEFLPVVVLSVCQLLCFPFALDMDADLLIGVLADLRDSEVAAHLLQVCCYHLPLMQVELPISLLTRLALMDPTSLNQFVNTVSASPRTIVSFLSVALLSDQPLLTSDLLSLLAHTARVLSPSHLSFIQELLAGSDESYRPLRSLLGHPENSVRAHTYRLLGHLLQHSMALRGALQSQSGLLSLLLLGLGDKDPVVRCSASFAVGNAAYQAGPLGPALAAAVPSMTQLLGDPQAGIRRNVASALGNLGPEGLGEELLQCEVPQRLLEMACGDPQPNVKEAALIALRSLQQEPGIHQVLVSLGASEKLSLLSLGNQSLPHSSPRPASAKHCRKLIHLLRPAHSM
Conditions: n=1, read-out: Percent inhibition, STK36.

For another experiment, the target named is T2, PLK1 (Homo sapiens, UniProt P53350).
T2 construct: purchased DiscoverX (KINOMEscan)
The conditions noted are these: n=1, read-out: Percent inhibition, PLK1. The gist of the method: (§1)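 T7 phage-fused kinases; compound displaces immobilized ATP-site probe ligand; bead-bound kinase quantified; % inhibition reported.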

The next experiment has as its target T3, CSNK1G1 (Homo sapiens, UniProt Q9HCP0).
T3 construct: purchased DiscoverX (KINOMEscan)
An outline of the steps:
as §1

The next experiment concerns the target T4, MERTK (Homo sapiens, UniProt Q12866).
T4 construct: purchased DiscoverX (KINOMEscan)
T4 sequence (Q12866 21-999): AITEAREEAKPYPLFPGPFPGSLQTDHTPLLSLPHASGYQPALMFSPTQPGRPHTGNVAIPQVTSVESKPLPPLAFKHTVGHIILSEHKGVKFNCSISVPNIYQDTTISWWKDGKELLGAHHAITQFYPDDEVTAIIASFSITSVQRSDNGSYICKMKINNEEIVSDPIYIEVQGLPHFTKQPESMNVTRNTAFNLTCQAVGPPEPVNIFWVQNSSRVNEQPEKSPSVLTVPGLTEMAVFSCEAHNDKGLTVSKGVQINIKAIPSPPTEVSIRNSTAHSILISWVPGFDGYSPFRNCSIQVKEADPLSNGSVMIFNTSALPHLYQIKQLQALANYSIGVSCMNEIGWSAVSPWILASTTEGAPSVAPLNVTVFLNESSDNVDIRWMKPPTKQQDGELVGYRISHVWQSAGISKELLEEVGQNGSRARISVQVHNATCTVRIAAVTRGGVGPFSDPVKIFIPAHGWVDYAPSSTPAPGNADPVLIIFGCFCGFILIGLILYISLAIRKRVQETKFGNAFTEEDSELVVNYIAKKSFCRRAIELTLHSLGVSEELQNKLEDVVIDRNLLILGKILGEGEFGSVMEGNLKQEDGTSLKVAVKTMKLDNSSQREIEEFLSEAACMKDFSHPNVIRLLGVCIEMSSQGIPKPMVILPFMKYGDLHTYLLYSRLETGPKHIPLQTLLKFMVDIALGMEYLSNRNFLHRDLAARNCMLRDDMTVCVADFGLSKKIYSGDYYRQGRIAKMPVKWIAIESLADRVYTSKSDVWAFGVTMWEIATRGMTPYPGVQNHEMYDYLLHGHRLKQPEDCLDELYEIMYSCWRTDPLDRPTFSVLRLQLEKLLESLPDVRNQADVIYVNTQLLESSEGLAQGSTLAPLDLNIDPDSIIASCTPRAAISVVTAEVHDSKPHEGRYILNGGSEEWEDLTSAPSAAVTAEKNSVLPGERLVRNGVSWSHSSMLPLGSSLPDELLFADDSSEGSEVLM
An outline of the steps: as §1

The target in the next experiment is T5, LYN (Homo sapiens, UniProt P07948).
T5 construct: purchased DiscoverX (KINOMEscan)
The gist of the method:
as §1

The target of the next experiment is T6, CSNK2A1 (Homo sapiens, UniProt P68400).
T6 construct: purchased DiscoverX (KINOMEscan)
The gist of the method: as §1

Where [1] appears, read: 10 µM, n=1, kinase CSNK1G1, read-out: Percent inhibition CSNK1G1.
Setting [2] is: 10 µM, n=1, kinase MERTK, read-out: Percent inhibition MERTK.
[3] abbreviates: 10 µM, n=1, kinase LYN, read-out: Percent inhibition LYN.
[4] abbreviates: 10 µM, n=1, kinase CSNK2A1, read-out: Percent inhibition CSNK2A1.

T3 sequence (Q9HCP0 whole entry): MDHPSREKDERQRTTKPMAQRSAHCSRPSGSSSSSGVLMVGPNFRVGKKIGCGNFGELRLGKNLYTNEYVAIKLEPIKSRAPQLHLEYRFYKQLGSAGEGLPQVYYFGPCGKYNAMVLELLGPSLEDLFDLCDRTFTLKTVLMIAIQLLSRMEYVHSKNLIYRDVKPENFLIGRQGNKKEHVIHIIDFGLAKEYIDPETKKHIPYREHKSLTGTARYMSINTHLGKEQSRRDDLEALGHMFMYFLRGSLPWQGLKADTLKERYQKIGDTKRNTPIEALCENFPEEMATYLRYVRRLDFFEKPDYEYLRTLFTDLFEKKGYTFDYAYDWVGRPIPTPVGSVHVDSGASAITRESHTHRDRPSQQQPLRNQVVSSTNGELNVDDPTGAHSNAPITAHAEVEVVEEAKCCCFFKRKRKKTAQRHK
T5 sequence (P07948 whole entry): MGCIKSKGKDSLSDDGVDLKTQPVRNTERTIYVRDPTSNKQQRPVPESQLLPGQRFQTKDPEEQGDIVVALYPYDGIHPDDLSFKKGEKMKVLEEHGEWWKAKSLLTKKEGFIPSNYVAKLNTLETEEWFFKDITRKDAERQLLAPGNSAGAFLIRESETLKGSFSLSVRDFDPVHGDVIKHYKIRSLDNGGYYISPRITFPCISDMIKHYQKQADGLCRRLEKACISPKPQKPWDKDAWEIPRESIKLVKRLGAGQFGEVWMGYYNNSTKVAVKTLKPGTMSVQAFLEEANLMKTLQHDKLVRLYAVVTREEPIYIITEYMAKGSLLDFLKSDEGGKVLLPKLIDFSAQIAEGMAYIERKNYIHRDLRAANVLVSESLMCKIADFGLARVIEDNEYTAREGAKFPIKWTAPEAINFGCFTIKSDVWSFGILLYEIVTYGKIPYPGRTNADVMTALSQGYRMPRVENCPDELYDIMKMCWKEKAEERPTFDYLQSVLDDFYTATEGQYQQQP
T6 sequence (P68400 whole entry): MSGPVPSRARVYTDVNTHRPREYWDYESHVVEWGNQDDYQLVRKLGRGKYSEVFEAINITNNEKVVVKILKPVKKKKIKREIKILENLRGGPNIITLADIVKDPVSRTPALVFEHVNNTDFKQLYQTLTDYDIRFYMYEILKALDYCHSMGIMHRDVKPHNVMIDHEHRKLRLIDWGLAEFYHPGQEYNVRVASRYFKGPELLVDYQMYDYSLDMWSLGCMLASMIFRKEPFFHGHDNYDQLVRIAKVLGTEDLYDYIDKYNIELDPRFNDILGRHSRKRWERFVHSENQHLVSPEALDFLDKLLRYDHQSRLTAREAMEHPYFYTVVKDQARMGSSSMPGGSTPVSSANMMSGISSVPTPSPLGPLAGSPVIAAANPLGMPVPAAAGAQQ
T2 sequence (P53350 whole entry): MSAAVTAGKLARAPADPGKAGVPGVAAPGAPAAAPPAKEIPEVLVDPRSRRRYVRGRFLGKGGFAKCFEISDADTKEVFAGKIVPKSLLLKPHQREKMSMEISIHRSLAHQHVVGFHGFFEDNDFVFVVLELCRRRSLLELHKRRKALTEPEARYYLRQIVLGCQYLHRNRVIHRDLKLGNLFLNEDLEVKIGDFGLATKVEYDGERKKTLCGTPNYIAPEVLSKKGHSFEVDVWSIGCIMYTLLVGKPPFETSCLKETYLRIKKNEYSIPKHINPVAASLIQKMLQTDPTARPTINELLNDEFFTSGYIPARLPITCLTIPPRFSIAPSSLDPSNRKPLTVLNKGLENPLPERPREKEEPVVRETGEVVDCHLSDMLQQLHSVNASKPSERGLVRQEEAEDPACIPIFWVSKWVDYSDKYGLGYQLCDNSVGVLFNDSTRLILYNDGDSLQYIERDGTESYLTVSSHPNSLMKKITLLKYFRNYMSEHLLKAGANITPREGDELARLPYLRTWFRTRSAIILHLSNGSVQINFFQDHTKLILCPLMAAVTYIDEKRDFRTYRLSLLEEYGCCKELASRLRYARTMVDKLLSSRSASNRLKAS

As usually defined, the inhibition is how much of the control response was suppressed. In the case of `CN1CCN(c2ccc(Nc3nccc(-c4cnn5ncccc45)n3)cc2C#N)CC1` [Compound 1], the inhibition at 10 µM at STK36 turned out to be 100%; at PLK1, 0%; at CSNK1G1 (setting [1]) it was 100%; at MERTK (setting [2]), 98.7%; on LYN (setting [3]) it was 0%; at CSNK2A1 (setting [4]), 100%.
`COc1ccc(Nc2nccc(-c3cnn4ncccc34)n2)cc1` [Compound 2]: the inhibition at 10 µM on STK36 was 98.8%; on PLK1 it was 97.2%; at CSNK1G1 (setting [1]), 75.9%; at MERTK (setting [2]), 65.9%; on LYN (setting [3]), 0%; on CSNK2A1 (setting [4]) it was 82%.
With `Cc1ccc(O)cc1Nc1ccnc(Nc2cccc(C(N)=O)c2)n1` [Compound 3], the inhibition at 10 µM came to 98.4% on STK36; 0% at PLK1; 82.5% at CSNK1G1 (setting [1]); 0% at MERTK (setting [2]); 99.9% on LYN (setting [3]); 0% on CSNK2A1 (setting [4]).
As to `Cc1ccc(O)cc1N(C)c1ccnc(Nc2cccc(S(N)(=O)=O)c2)n1` [Compound 4], the inhibition at 10 µM is 99.3% on STK36; 0% on PLK1; 0% on CSNK1G1 (setting [1]); 77.6% on MERTK (setting [2]); 99.8% on LYN (setting [3]); 0% on CSNK2A1 (setting [4]).
As for `Fc1cccc(COc2ccc(Nc3ncnc4c3CN(CCN3CCOCC3)CC4)cc2Cl)c1` [Compound 6], the inhibition at 10 µM at STK36, on PLK1, on CSNK1G1 (setting [1]), at MERTK (setting [2]), at LYN (setting [3]) and on CSNK2A1 (setting [4]) was 0% throughout.
As to `COc1cc(Nc2nccc(-c3sc(N)nc3-c3cccc(NC(=O)c4c(F)cccc4F)c3)n2)cc(OC)c1OC` [Compound 7], the inhibition at 10 µM on STK36 was found to be 100%; at PLK1 it was 0%; at CSNK1G1 (setting [1]), 0%; at MERTK (setting [2]), 99.6%; on LYN (setting [3]), 100%; at CSNK2A1 (setting [4]), 0%.
In the case of `C[C@@H](Oc1cc(-c2cnc3ccccn23)sc1C(N)=O)c1ccccc1Cl` [Compound 8], the inhibition at 10 µM amounted to 0% on STK36; 0% at CSNK1G1 (setting [1]); 87.6% at MERTK (setting [2]); 0% on LYN (setting [3]); 94.6% at CSNK2A1 (setting [4]).
As to `c1ccc(COc2cccc(-c3ccnc4[nH]ccc34)c2)cc1` [Compound 9], the inhibition at 10 µM is 0% on STK36; 0% on PLK1; 0% at CSNK1G1 (setting [1]); not below 90% at MERTK (10 μM, n = 1, read-out: percent inhibition MERTK); 94.1% on MERTK (setting [2]); 0% at LYN (setting [3]). Besides, the inhibition at 10 µM is not below 99% on CSNK2A1 (10 μM, n = 1, read-out: percent inhibition CSNK2A1) and 100% at CSNK2A1 (setting [4]).
With `Clc1ccc(Nc2ncc(-c3ccccc3)s2)cc1` [Compound 10], the inhibition at 10 µM is 0% at STK36; 0% at PLK1; 0% on CSNK1G1 (setting [1]); 0% on MERTK (setting [2]); more than 99% at LYN (10 μM, n = 1, read-out: percent inhibition LYN); 100% on LYN (setting [3]). Moreover, the inhibition at 10 µM at CSNK2A1 (setting [4]) worked out at 0%.
Turning to `Nc1ncc2c(-c3ccncc3)c[nH]c2n1` [Compound 11], the inhibition at 10 µM at STK36 was 0%; on PLK1, 0%; at CSNK1G1 (10 μM, n = 1, read-out: percent inhibition CSNK1G1), not below 99%; on CSNK1G1 (setting [1]), 99.3%; on MERTK (setting [2]), 0%; at LYN (setting [3]), 0%. Further, the inhibition at 10 µM on CSNK2A1 (setting [4]) came out at 0%.
